Reference: patent US11484593B2, “Atropisomers of halogenated tetraphenylbacteriochlorins and chlorins and their use in photodynamic therapy” (LUZITIN, S.A., priority 2015, dated 2022)

Tests used:
[1] = photodecomposition quantum yield, aerated methanol:PBS (3:2), 749 nm, 640 mW
[2] = test system: HT-29 (human colon carcinoma) cells; assay: In vitro phototoxicity, resazurin cell viability after irradiation at 749 nm; format: cell-based; conditions: light dose 1 J/cm^2 at 749 nm, 24 h incubation
[3] = Absorption spectra / molar absorption coefficients (Beer-Lambert) in ethanol; format: physicochemical; conditions: for ε/10^3: infrared absorption maximum
[4] = test system: CT26 (mouse colon carcinoma) cells; assay: In vitro phototoxicity, resazurin cell viability after irradiation at 749 nm; format: cell-based
[5] = Singlet oxygen quantum yield in ethanol (phosphorescence at 1270 nm, phenalenone reference); format: physicochemical; conditions: aerated ethanol
[6] = Triplet lifetimes by nanosecond laser flash photolysis, excitation at 355 nm; format: physicochemical; conditions: triplet lifetime in aerated ethanol
subcutaneous CT26 tumor = assay: Vascular-PDT of subcutaneous CT26 tumor in BALB/c mice with enriched atropisomer compositions (Example 7); format: in vivo; conditions: nominal 0.7 mg/kg i.v., 15 min later 55 J on 1.33 cm^2
[7] = in ethanol, reference; cited from earlier work
[8] = light dose 1 J/cm^2 at 749 nm, extrapolated from non-linear regression curve
[9] = light dose 1 J/cm^2 at 749 nm, 24 h incubation

SMILES | ΦPD/10^−6 [1] | IC50 [2] [nM] | IC90 [2] [nM] | λmax [3] [nm] | ε/10^3 [3] [M^−1 cm^−1] | IC50 ([4]; light dose 1 J/cm^2, Table 1, extrapolated from non-linear regression curve) [nM] | IC50 [4, 8] [nM] | IC90 [4, 8] [µM] | ΦΔ [5] | τT (air) [6] [ns] | IC50 ([4]; light dose 1 J/cm^2, Table 1) [nM] | IC50 [4, 9] [nM] | IC90 [4, 9] [µM] | long-term cures (tumor-free 60 days after the treatment) (subcutaneous CT26 tumor) | median survival time (subcutaneous CT26 tumor) [days] | singlet oxygen quantum yield ΦΔ (literature value) [7] | median survival time shorter than with the LUZ11 sample (subcutaneous CT26 tumor) [days]
CNS(=O)(=O)c1ccc(F)c(-c2c3nc(c(-c4c(F)ccc(S(=O)(=O)NC)c4F)c4ccc([nH]4)c(-c4c(F)ccc(S(=O)(=O)NC)c4F)c4nc(c(-c5c(F)ccc(S(=O)(=O)NC)c5F)c5ccc2[nH]5)CC4)CC3)c1F (single isomer, unassigned) [LUZ11-A] | 15 | 343 | 1010 | 743 | 126 | 67400 | 67400 | 2830 | 0.39 | 257 ± 7 |  |  |  |  |  |  | 
CNS(=O)(=O)c1ccc(F)c(-c2c3nc(c(-c4c(F)ccc(S(=O)(=O)NC)c4F)c4ccc([nH]4)c(-c4c(F)ccc(S(=O)(=O)NC)c4F)c4nc(c(-c5c(F)ccc(S(=O)(=O)NC)c5F)c5ccc2[nH]5)CC4)CC3)c1F (single isomer, unassigned) [LUZ11-B] | 15 | 178 | 433 | 743 | 137 |  |  | 7.53 | 0.35 | 296 ± 33 | 1460 | 1460 |  |  |  |  | 
CNS(=O)(=O)c1ccc(F)c(-c2c3nc(c(-c4c(F)ccc(S(=O)(=O)NC)c4F)c4ccc([nH]4)c(-c4c(F)ccc(S(=O)(=O)NC)c4F)c4nc(c(-c5c(F)ccc(S(=O)(=O)NC)c5F)c5ccc2[nH]5)CC4)CC3)c1F [LUZ11] |  | 367 | 588 |  |  |  |  |  |  |  |  | 871 | 4.31 | not possible to obtain long-term cures | 20 |  | 
O=C1C=Cc2cccc3cccc1c23 [phenalenone] |  |  |  |  |  |  |  |  |  |  |  |  |  |  |  | 0.95 | 
CNS(=O)(=O)c1ccc(F)c(-c2c3nc(c(-c4c(F)ccc(S(=O)(=O)NC)c4F)c4ccc([nH]4)c(-c4c(F)ccc(S(=O)(=O)NC)c4F)c4nc(c(-c5c(F)ccc(S(=O)(=O)NC)c5F)c5ccc2[nH]5)CC4)CC3)c1F [sample X] |  |  |  |  |  |  |  |  |  |  |  |  |  | absence of long-term cures | 18 |  | 2
